Assay results published in patent US20070203163A1, “Novel Treatment Of Irritable Bowel Syndrome 1” (priority 2003, published 2007).

System: visceromotor response to colorectal distension
Experiment: Visceromotor response to isobaric colorectal distension in rats
Assay type: in vivo, rats (Sprague Dawley)
From the text: In this study the effect of acute administration of a compound on the visceromotor response to isobaric colorectal distension in rats is investigated (Ritchie J. Pain from distension of the pelvic colon by inflating a balloon in the irritable bowel syndrome. Gut 1973; 6: 105-112. Ness T J, Gebhart G F. Colorectal distension as a noxious visceral stimulus: physiological and pharmacological characterization of pseudoeffective reflexes in the rat. Brain Research 1988; 450: 153-169).
Colorectal distension (CRD) is performed in all rats (Sprague Dawley) using a paradigm of 12 consecutive distensions (or pulses) at 80 mmHg for 30 seconds each with 4.5 minute intervals (12×80 mmHg). The visceromotor respbnse is determined by quantifying phasic changes in the balloon pressure, which is processed by specially designed computer software. The compound is dissolved in saline and administered at the doses of 1, 3 and 10 μmol/kg. The compound is given intravenously in a volume of 1 mL/kg between the third and fourth distension.

Compound	effect on visceromotor response (VMR) to colorectal distension (1 μmol/kg i.v.)	effect on visceromotor response (VMR) to colorectal distension (3 μmol/kg i.v.)	effect on visceromotor response (VMR) to colorectal distension (10 μmol/kg i.v.)	average visceromotor response (VMR) during colorectal distension, relative to vehicle treated (100±19) (10 μmol/kg i.v., CRD 12×80 mmHg, mean±SEM, n=8)
Cc1cccc(C#Cc2ccccc2)n1 [MPEP, 2-methyl-6-(phenylethynyl)-pyridine]	No effect	modest effect during a few distensions only	decreased the visceromotor response (VMR)	46±11%
COCc1cc(C#N)cc(-c2nc(-c3ccc(F)cn3)no2)c1 [3-[3-(5-Fluoro-pyridin-2-yl)-[1,2,4]oxadiazol-5-yl]-5-methoxymethyl-benzonitrile]	transient inhibitory effect			
